Measurements reported in PubChem BioAssay (NCI).
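The compound was tested at five concentrations on cells cultured in 96-well plates, with a 48-hour exposure period. GI50 marks 50% less growth. At the TGI there is no net growth.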

Experiments:
Test in all cases: growth of human tumour cells (NCI), 48 h
[1] = test system: A498 renal
[2] = test system: ACHN renal
[3] = test system: BT-549 breast
[4] = test system: CCRF-CEM leukemia
[5] = test system: DU-145 prostate
[6] = test system: EKVX NSCLC
[7] = test system: HCC-2998 colon
[8] = test system: HCT-116 colon
[9] = test system: HCT-15 colon
[10] = test system: HL-60(TB) leukemia
[11] = test system: HOP-92 NSCLC
[12] = test system: HS 578T breast
[13] = test system: HT29 colon
[14] = test system: IGROV1 ovarian
[15] = test system: K-562 leukemia
[16] = test system: KM12 colon
[17] = test system: MALME-3M melanoma
[18] = test system: MCF7 breast
[19] = test system: MDA-MB-435
[20] = test system: MOLT-4 leukemia
[21] = test system: NCI-H226 lung
[22] = test system: NCI-H23 lung
[23] = test system: NCI-H460 lung
[24] = test system: NCI-H522 lung
[25] = test system: NCI/ADR-RES ovarian
[26] = test system: OVCAR-4 ovarian
[27] = test system: OVCAR-5 ovarian
[28] = test system: OVCAR-8 ovarian
[29] = test system: RPMI-8226 leukemia
[30] = test system: RXF 393 renal
[31] = test system: SF-295 CNS
[32] = test system: SF-539 CNS
[33] = test system: SK-MEL-28 melanoma
[34] = test system: SK-MEL-5 melanoma
[35] = test system: SK-OV-3 ovarian
[36] = test system: SNB-19 CNS
[37] = test system: SNB-75 CNS
[38] = test system: SR leukemia
[39] = test system: SW-620 colon
[40] = test system: TK-10 renal
[41] = test system: U251 CNS
[42] = test system: UACC-257 melanoma
[43] = test system: UACC-62 melanoma
[44] = test system: UO-31 renal
[45] = test system: 786-0 renal
[46] = test system: A549 NSCLC
[47] = test system: CAKI-1 renal
[48] = test system: COLO 205 colon
[49] = test system: HOP-62 NSCLC
[50] = test system: M14 melanoma
[51] = test system: OVCAR-3 ovarian
[52] = test system: SF-268 CNS
[53] = test system: SK-MEL-2 melanoma
[54] = test system: SN12C renal
[55] = test system: T-47D breast

Structure (SMILES): Cc1nn(-c2ccccc2)cc1/C=N/Nc1nc(Nc2ccccc2)nc(Nc2ccc(S(N)(=O)=O)cc2)n1
- GI50 [1]: 1.71 µM
- TGI [1]: 3.39 µM
- GI50 [2]: 1.9 µM
- TGI [2]: 3.57 µM
- GI50 [3]: 1.85 µM
- TGI [3]: 4.56 µM
- GI50 [4]: 2.09 µM
- TGI [4]: > 100 µM
- GI50 [5]: 3.06 µM
- TGI [5]: 9.48 µM
- GI50 [6]: 2 µM
- TGI [6]: 5.09 µM
- GI50 [7]: 1.88 µM
- TGI [7]: 3.63 µM
- GI50 [8]: 2 µM
- TGI [8]: 4.52 µM
- GI50 [9]: 2.67 µM
- TGI [9]: > 100 µM
- GI50 [10]: 2.24 µM
- TGI [10]: 7.67 µM
- GI50 [11]: 2.44 µM
- TGI [11]: 5.44 µM
- GI50 [12]: 2.77 µM
- TGI [12]: 8.1 µM
- GI50 [13]: 2.88 µM
- TGI [13]: > 100 µM
- GI50 [14]: 2.59 µM
- TGI [14]: 6.7 µM
- GI50 [15]: 2.63 µM
- TGI [15]: > 100 µM
- GI50 [16]: 2.84 µM
- TGI [16]: 8.33 µM
- GI50 [17]: 1.6 µM
- TGI [17]: 3.13 µM
- GI50 [18]: 1.55 µM
- TGI [18]: 3.43 µM
- GI50 [19]: 1.77 µM
- TGI [19]: 3.46 µM
- GI50 [20]: 2.29 µM
- TGI [20]: > 100 µM
- GI50 [21]: 1.85 µM
- TGI [21]: 4.34 µM
- GI50 [22]: 1.75 µM
- TGI [22]: 3.62 µM
- GI50 [23]: 2.77 µM
- TGI [23]: 7.38 µM
- GI50 [24]: 2.66 µM
- TGI [24]: 8.27 µM
- GI50 [25]: > 100 µM
- TGI [25]: > 100 µM
- GI50 [26]: 2.56 µM
- TGI [26]: 7.32 µM
- GI50 [27]: 2.06 µM
- TGI [27]: 5.04 µM
- GI50 [28]: 2.05 µM
- TGI [28]: > 100 µM
- GI50 [29]: 1.66 µM
- TGI [29]: 5.41 µM
- GI50 [30]: 1.77 µM
- TGI [30]: 3.39 µM
- GI50 [31]: 2.23 µM
- TGI [31]: 5.94 µM
- GI50 [32]: 1.71 µM
- TGI [32]: 3.27 µM
- GI50 [33]: 1.8 µM
- TGI [33]: 3.46 µM
- GI50 [34]: 1.48 µM
- TGI [34]: 2.8 µM
- GI50 [35]: 2.93 µM
- TGI [35]: 6.61 µM
- GI50 [36]: 3.44 µM
- TGI [36]: > 100 µM
- GI50 [37]: 2.69 µM
- TGI [37]: 8.72 µM
- GI50 [38]: 2.45 µM
- TGI [38]: > 100 µM
- GI50 [39]: 3.38 µM
- GI50 [40]: 1.48 µM
- TGI [40]: 3.5 µM
- GI50 [41]: 3.65 µM
- TGI [41]: > 100 µM
- GI50 [42]: 2.5 µM
- TGI [42]: 7.43 µM
- GI50 [43]: 1.78 µM
- TGI [43]: 3.57 µM
- GI50 [44]: 1.72 µM
- TGI [44]: 3.54 µM

Structure (SMILES): Nc1nc(N)c2c(n1)NC(c1ccc(C(F)(F)F)cc1)CC(c1ccc(Nc3nc(NCCO)nc(Nc4ccc(Cl)cc4)n3)cc1)=N2 (stereo not drawn)
- GI50 [45]: 1.39 µM
- TGI [45]: 2.91 µM
- GI50 [1]: 1.56 µM
- TGI [1]: 2.9 µM
- GI50 [46]: 1.73 µM
- TGI [46]: 3.5 µM
- GI50 [2]: 1.5 µM
- TGI [2]: 2.82 µM
- GI50 [3]: 1.57 µM
- TGI [3]: 3.16 µM
- GI50 [47]: 1.45 µM
- TGI [47]: 2.85 µM
- GI50 [4]: 1.23 µM
- TGI [4]: > 100 µM
- GI50 [48]: 1.33 µM
- TGI [48]: 2.64 µM
- GI50 [5]: 1.51 µM
- TGI [5]: 2.84 µM
- GI50 [6]: 1.52 µM
- TGI [6]: 2.96 µM
- GI50 [7]: 1.31 µM
- TGI [7]: 2.62 µM
- GI50 [8]: 1.05 µM
- TGI [8]: 2.41 µM
- GI50 [9]: 1.15 µM
- TGI [9]: 2.58 µM
- GI50 [49]: 1.63 µM
- TGI [49]: 3.16 µM
- GI50 [11]: 1.48 µM
- TGI [11]: 3.43 µM
- GI50 [13]: 1.36 µM
- TGI [13]: 2.99 µM
- GI50 [15]: 0.642 µM
- TGI [15]: > 100 µM
- GI50 [16]: 1.37 µM
- TGI [16]: 2.88 µM
- GI50 [50]: 1.64 µM
- TGI [50]: 3.06 µM
- GI50 [19]: 1.4 µM
- TGI [19]: 2.72 µM
- GI50 [21]: 1.84 µM
- TGI [21]: 3.91 µM
- GI50 [23]: 1.96 µM
- TGI [23]: 4.01 µM
- GI50 [24]: 1.34 µM
- TGI [24]: 2.72 µM
- GI50 [51]: 1.32 µM
- TGI [51]: 2.94 µM
- GI50 [27]: 1.6 µM
- TGI [27]: 3 µM
- GI50 [28]: 1.5 µM
- TGI [28]: 2.94 µM
- GI50 [30]: 1.14 µM
- TGI [30]: 2.5 µM
- GI50 [52]: 1.66 µM
- TGI [52]: 3.47 µM
- GI50 [31]: 1.79 µM
- TGI [31]: 3.32 µM
- GI50 [32]: 1.56 µM
- TGI [32]: 2.97 µM
- GI50 [53]: 1.67 µM
- TGI [53]: 3.07 µM
- GI50 [33]: 1.53 µM
- TGI [33]: 2.86 µM
- GI50 [34]: 1.55 µM
- TGI [34]: 2.89 µM
- GI50 [35]: 1.83 µM
- TGI [35]: 3.45 µM
- GI50 [54]: 1.76 µM
- TGI [54]: 3.34 µM
- GI50 [36]: 1.51 µM
- TGI [36]: 2.95 µM
- GI50 [37]: 1.7 µM
- TGI [37]: 3.93 µM
- GI50 [39]: 1.6 µM
- TGI [39]: 3.36 µM
- GI50 [55]: 1.55 µM
- TGI [55]: 3.69 µM
- GI50 [40]: 1.78 µM
- TGI [40]: 3.17 µM
- GI50 [41]: 1.24 µM
- TGI [41]: 2.53 µM
- GI50 [42]: 1.75 µM
- TGI [42]: 3.19 µM
- GI50 [44]: 1.43 µM
- TGI [44]: 2.76 µM
